Earlier results as cited in patent publication US10780172B2, “Docetaxel and human serum albumin complexes” (Zhuhai Beihai Biotech Co., Ltd., priority 2015, dated 2020).
Entries after “also recorded” stand apart in the source; their conditions may differ.

protein bound (plasma proteins; in vitro studies, mainly to al-acid glycoprotein, albumin, and lipoproteins): about 94%
in vitro binding to plasma proteins (plasma proteins; three cancer patients): approximately 97%
Compound: CC(=O)O[C@@]12CO[C@@H]1C[C@H](O)[C@@]1(C)C(=O)[C@H](O)C3=C(C)[C@@H](OC(=O)[C@H](O)[C@@H](NC(=O)OC(C)(C)C)c4ccccc4)C[C@@](O)([C@@H](OC(=O)c4ccccc4)[C@H]21)C3(C)C [Docetaxel]
water solubility: practically insoluble in water; also recorded: very poor water solubility
potency relative to paclitaxel in inhibiting microtubule depolymerization (microtubule): about twice as potent as paclitaxel
